Where two headings read alike, the source gives them in different places.
Legend:
Type in all cases: cell-based
[1] = test system: MCF-7 human breast cancer cells; assay: Cancer bioassay, cytotoxicity by NCI protocol
[2] = test system: recombinant Tulahuen clone C4 of T. cruzi, intracellular amastigotes in Vero cells; assay: Chagas' disease bioassay, beta-galactosidase colorimetric assay; details: Trypanosoma cruzi, 120 h, read-out: IC50 T. cruzi
[3] = test system: chloroquine-resistant strain (Indochina W2) of P. falciparum; assay: Malaria bioassay, PicoGreen fluorometric antiplasmodial assay; details: Plasmodium falciparum
[4] = Mammalian cell cytotoxicity bioassay; details: African green monkey, Vero cells (kidney)

Which IC50 ([1]; MCF7, read-out: IC50 MCF-7, positive control) does the source give for `COc1cccc2c1C(=O)c1c(O)c3c(c(O)c1C2=O)C[C@@](O)(C(=O)CO)C[C@@H]3O[C@H]1C[C@H](N)[C@H](O)[C@H](C)O1` [Adriamycin, reference compound] here?
The IC50 was 0.02 to 0.3 nM.

For `COc1c(CC(C)O)c2c3c(CC(C)O)c(OC)c(=O)c4c(O)cc5c(c6c(cc(O)c(c1=O)c62)OCO5)c43` (stereo not shown) [Compound 1, cercosporin], which IC50 [2] is on record?
The IC50 was 1080 ± 30 nM.

And the IC50 ([3]; W2, read-out: IC50 P. falciparum)?
The IC50 was 1030 ± 30 nM.

And the IC50 ([1]; MCF7, read-out: IC50 MCF-7)?
Its IC50 is 4680 ± 200 nM.

And the IC50 at 4 h [4]?
Its IC50 at 4 h is 1540 ± 100 nM.

Which IC50 [2] does the source give for `CC1CS(=O)(=O)CCN1/N=C/c1ccc([N+](=O)[O-])o1` (stereo not shown) [Nifurtimox, reference compound] here?
The IC50 was 10000 to 16000 nM.

With `CCN(CC)CCCC(C)Nc1ccnc2cc(Cl)ccc12` (stereo not shown) [Chloroquine, reference compound] as the compound, how does the IC50 ([3]; W2, read-out: IC50 P. falciparum, positive control) read?
Its IC50 is 80 to 100 nM.
